Test results as given in US10710951B2, “Pharmaceutical composition containing verbenone derivative for treating or preventing neurodegenerative disease” (KOREA UNIVERSITY RESEARCH AND BUSINESS FOUNDATION, priority 2012, dated 2020).

What was measured:
[1] = test system: cortical neurons; assay: Oxygen-glucose deprivation (OGD)/reoxygenation neuronal injury, LDH release; type: cell-based; conditions: rat cortical neurons, FIG. 1
Procedure: (§1) Cortical neurons (5×10^5 cells/ml) were isolated from fetal SD rats (16-17 days). Specifically, brain cortex was cut, and cells were isolated from the tissue by repeated trituration using a Pasteur pipette in buffer (Hanks' Balanced Salt Solution, HBSS). The cell suspension (1.8×10^3 cells/mm^2) was dispensed on a plate pretreated with poly-D-lysine ([…])/laminin ([…]). The cells were placed in 10% FBS-containing NBM medium, and incubated in a […]/5% CO2 atmosphere at 37° C. After 15-16 days of the incubation, the experiment was performed.
In order to induce hypoxic-ischemic symptoms in vitro, the incubated cells were placed in an anoxic chamber (partial oxygen pressure <2 mmHg). The cells were incubated glucose-free DMEM while being bubbled with an anaerobic gas mixture (95% N2 and 5% CO2) for 30 minutes to remove residual oxygen, and were incubated at 37° C. for 90 minutes for oxygen deprivation. After 90 minutes, the exposed solution was replaced with 25 mmol/L glucose-containing DMEM medium to stop the OGD reaction, and the cells were restored to normal oxygen conditions. Control cells not exposed to OGD were incubated in glucose (25 mmol/L)-containing DMEM medium provided with an aerobic gas mixture (95% air and 5% CO2). The cells were treated with each sample 30 minutes before, and during the entire period of OGD/re-oxygenation.
(§2) In order to measure cell injury or cell death, the amount of LDH released into the medium was measured using a cell viability measurement kit (Sigma-Aldrich, St. Louis, Mo.). Cell viability was expressed as the percentage of LDH relative to the total cellular LDH level measured in sister cultures lysed by freezing-thawing after the experiment.

[2] = test system: cortical neurons; assay: NMDA-induced excitotoxicity, LDH release; type: cell-based, SD rats; parameters: dose or concentration left out as unconfirmed; conditions: cultured cortical neuronal cells; sample 30 min before NMDA; lower than MK-801; FIG. 2
Procedure: as §1
After incubation on the plate for 15-18 days, the cortical neurons were exposed to NMDA ([…]) in a solution (Mg^2+-free Earle's balanced salt solution (EBSS); containing 1.8 mM CaCl2 and 10 mM glycine) for 10 minutes. After exposure, the cells were washed with MgSO4-containing EBSS solution, and incubated in 25 mmol/L glucose-containing DMEM medium in a 5% CO2 incubator at 37° C. 30 Minutes before treatment with NMDA, the cells were treated with each sample […].
as §2

[3] = test system: cortical neurons; assay: Intracellular levels (DCF fluorescence) of reactive oxygen species after OGD/reoxygenation; type: cell-based, SD rats; conditions: FIG. 3
Procedure: In order to examine the direct radical scavenging activities of the samples, at 1 hour after reoxygenation, the cells were stained with the fluorescent probe H2DCF-DA (2,7-dihydroichlorofluorescein diacetate) that is widely used to measure intracellular oxidative stress. After 2 hours, the cells were washed in EBSS buffer (containing 25 mM glucose, 1.8 mM CaCal2, 1.2 mM MgSO4 and 2.5 mM probenecid (pH7.4)), and the fluorescence of DCF was measured with a fluorescence microplate reader (SpectraMax GeminiEM; Ex=485 nm, Em=530 nm) or a fluorescence microscope (DM IL HC Fluo, Leica, Wetzlar, Germany) equipped with a digital camera (DFC420C, Leica, Wetzlar Germany). The fluorescence intensity was compensated with autofluorescence (i.e., the fluorescence of cells not loaded with H2DCF-DA).

[4] = DPPH assay (ability to scavenge nitrogen radicals); parameters: DPPH assay % inhibition: concentration or dose not given beside the values
Procedure: The samples were mixed with DPPH (23.6 μg/ml, in ethanol), and incubated in dark at 37° C. for 30 minutes. The DPPH absorbance reduced by each sample was measured at 517 nm. Vitamin C (Sigma-Aldrich, St. Louis, Mo.) was used as a control, and the DPPH inhibition value (%) was calculated using the following equation: Scavenging activity (%)=[Absmax(Vit.C)−Abssample]/[Absmax(Vit.C)−Absmin(Vit.C)]×100. Equation 1
(§3) The antioxidant activities of the verbenone derivatives of the present invention were measured by the following two different chemical reactions: (1) a single electron transfer-based assay that is a […] [DPPH] assay that measures a decrease in DPPH acting as a free radical generator and a termination probe; and (2) a hydrogen atom transfer assay that is an oxygen radical absorbance capacity [[…]] assay that measures the competitive reaction kinetics of a peroxyl radical generator (AAPH; 2,2′-azobis-(2-methylpropionamide)-dihydrochloride) and each sample acting as an antioxidant for oxidizable fluorescent probe (fluorescein).

[5] = Oxygen radical absorbance capacity (ORAC) assay; parameters: ORAC assay TE25 (trolox equivalents): dose or concentration left out as unconfirmed; conditions: for ORAC assay TE25 (trolox equivalents): net AUC sample / net AUC trolox
Procedure: An ORAC assay was performed as disclosed in the literature (Huang, D. et al., J. Agric. Food Chem., 53, 1841-56, 2005).
AAPH (60 mM) and fluorescein (50 nM) were prepared in buffer (75 mM phosphate buffer, pH7.4) without a sample or a sample or a standard (Trolox). Each of the samples and the standard was suspended in a solution of 7% RMCD (randomly methylated beta-cyclodextrin) in 50% acetone. RMCD was used to increase the solubility of oil-soluble samples. Each sample was sufficiently mixed with fluorescein solution (66 nM, 190 μl) by shaking for 5 seconds. After incubation at 37° C. for 10 minutes, AAPH (500 mM, 30 μl) was quickly added to each sample, and a decrease in the fluorescence was measured using a fluorescence microplate reader (Ex=485 nm, Em=530 nm; SpectraMax GeminiEM, Molecular Devices, Sunnyvale, Calif.) at 37° C. at 5-min intervals for 9 hours. To quantify the activity of scavenging peroxyl radicals, AUC (area-under-the-curve) was calculated according to the following equation 2, and net AUC was calculated according to the following equation 3, and the TE (trolox equivalents) of each sample was calculated according to the following equation 4 based on a standard curve of net AUC plotted according to an increase in trolox concentration. AUC=(0.5+f1/f0+f2/f0+f3/f0+ . . . +fn−2/f0+fn−1/f0+fn/f0)×5, Equation 2
wherein f0 is the first fluorescence at 0 min and time I. Net AUC=AUCsample−AUCblank. Equation 3 TE(trolox equivalents) of each sample=[netAUCsample […]]/[net AUCtrolox […]]. Equation 4
as §3

[6] = test system: focal ischemia; conditions: rats and gerbils; literature; cited from earlier work

SMILES | neuronal injury induced by OGD (LDH release) ([1]; OGD/reoxygenation, comparable to MK801) | cytotoxicity [1] | NMDA-induced neuronal injury [2] | OGD-induced intracellular oxidative stress (DCF fluorescence) [3] | DPPH scavenging activity (in words) ([4]; compared to vitamin C at the same concentration) | DPPH assay % inhibition ([4]; relative to vitamin C (Equation 1)) [%] | ORAC assay Net AUC [5] | ORAC assay TE25 (trolox equivalents) [5] | peroxyl radical scavenging activity in ORAC assay (in words) ([5]; compared to trolox) | melting point [°C] | time of administration after onset of focal ischemia giving a neuron protection effect [6] [h]
CC1(C)[C@@H]2C[C@H]1C(C=Cc1ccc(O)c(O)c1)=CC2=O [Compound 3c, (1S,5R)-4-(3,4-dihydroxystyryl)-6,6-dimethylbicyclo[3.1.1]hept-3-en-2-one] | significantly reduced neuronal injury | showed no cytotoxicity | significantly reduced NMDA-induced neuronal injury | reduced OGD-induced intracellular oxidative stress | stronger scavenging activity compared to vitamin C | 91.62 ± 3.27 | 131.29 ± 11.97 | 3.11 ± 0.11 |  |  | 
CC1(C)[C@@H]2C[C@H]1C(C=Cc1ccc(-n3cccc3)cc1)=CC2=O [Compound 4e, (1S,5R)-4-(4-(1H-pyrrol-1-yl)styryl)-6,6-dimethylbicyclo[3.1.1]hept-3-en-2-one] |  |  |  |  |  |  | 98.31 ± 0.48 | 2.19 ± 0.01 | strong peroxyl radical scavenging activities compared to trolox | 146 to 148 | 
C[C@]12N[C@H](Cc3ccccc31)c1ccccc12 [MK-801] |  |  |  |  |  |  |  |  |  |  | ≤ 1
